Experimental data: US8309584B2, “Sulfur containing pyrazole-heterocycle derivatives as cannabinoid CB1 receptor antagonists” (Green Cross Corporation, priority 2008, dated 2012)

The compounds below were run against T1, rat CB-1 receptor (Rattus norvegicus, UniProt P20272) (assay: rat cannabinoid-1 receptor (CB1R) binding affinity assay). Details: not given.
T1 construct: The tissue obtained from the brain of SD rats was homogenized; from tissue; host or cells: SD rat brain membrane homogenate
Method: The tissue obtained from the brain of SD rats was homogenized with a Dounce homogenate system in TME(50 mM Tris, 3 mM MgCl2 and 1 mM EDTA, pH 7.4) at 4° C., and the homogenate was centrifuged at 48,000 g for 30 min. at 4° C. The pellet was resuspended in 5 ml of TME and the suspension was divided into aliquots and stored at −70° C. until its use in the following assay.
The tissue concentrations were determined by Bradford protein analysis, and 148 μl of brain tissue of the required concentration was added to the plate. The plate was covered and placed in a 30° C. incubator for 60 min, and then transformed on GF/B filtermat pretreated in polyethylenimine (PEI) using a cell harvester. Each filter was washed five times and dried at 60° C. for 1 hr. Then, the degree of radioactivity retained by the filter was measured using Wallac Microbeta™ (PerkinElmer Life Sciences, Inc., Massachusetts, U.S.A.) and the activity of the compound for inhibiting CB1 receptor was determined therefrom.

T1 sequence (P20272 whole entry): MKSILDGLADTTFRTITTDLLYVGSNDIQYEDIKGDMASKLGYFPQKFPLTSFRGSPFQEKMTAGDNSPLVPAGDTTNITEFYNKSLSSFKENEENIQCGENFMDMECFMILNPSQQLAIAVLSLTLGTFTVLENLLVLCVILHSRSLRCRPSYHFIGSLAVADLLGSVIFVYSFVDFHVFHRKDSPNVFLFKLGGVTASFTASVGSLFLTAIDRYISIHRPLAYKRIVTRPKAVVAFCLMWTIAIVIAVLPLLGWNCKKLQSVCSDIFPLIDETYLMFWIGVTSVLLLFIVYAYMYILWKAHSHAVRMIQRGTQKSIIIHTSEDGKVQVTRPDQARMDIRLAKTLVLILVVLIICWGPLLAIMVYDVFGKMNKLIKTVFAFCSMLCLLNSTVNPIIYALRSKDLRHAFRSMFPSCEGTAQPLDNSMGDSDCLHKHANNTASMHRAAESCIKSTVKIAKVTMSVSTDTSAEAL

Q: For CSc1c(-c2nnc(C3(C(F)(F)F)CC3)o2)nn(-c2ccccc2Cl)c1-c1ccc(Br)cc1 [Example 14, 2-(5-(4-bromophenyl)-1-(2-chlorophenyl)-4-(methylthio)-1H-pyrazol-3-yl)-5-(1-(trifluoromethyl)cyclopropyl)-1,3,4-oxadiazole], which IC50 is on record?
A: 4.11 nM

Q: CSc1c(-c2nnc(C3(C(F)(F)F)CCC3)s2)nn(-c2ccccc2Cl)c1-c1ccc(Br)cc1 [Example 35, 2-(5-(4-bromophenyl)-1-(2-chlorophenyl)-4-(methylthio)-1H-pyrazol-3-yl)-5-(1-(trifluoromethyl)cyclobutyl)-1,3,4-thiadiazole] was tested. Which IC50 did it give?
A: 7.77 nM

Same assay, conditions: [3H]CP-55940 radioligand, SD rat brain tissue homogenate, 30° C., 60 min; read-out: IC50

Q: How did the IC50 turn out when C[S+]([O-])c1c(-c2nnc(C3(C(F)(F)F)CCC3)o2)nn(-c2ccccc2Cl)c1-c1ccc(Br)cc1 (stereo not shown) [Example 55, 2-(5-(4-bromophenyl)-1-(2-chlorophenyl)-4-(methylsulfinyl)-1H-pyrazol-3-yl)-5-(1-(trifluoromethyl)cyclobutyl)-1,3,4-oxadiazole] was run?
A: 6.51 nM

Q: For CSc1c(-c2nnc(C3(C(F)(F)F)CC3)o2)nn(-c2ccc(Cl)cc2Cl)c1-c1ccc(Cl)cc1 [Example 2, 2-(5-(4-chlorophenyl)-1-(2,4-dichlorophenyl)-4-(methylthio)-1H-pyrazol-3-yl)-5-(1-(trifluoromethyl)cyclopropyl)-1,3,4-oxadiazole], which IC50 is on record?
A: 6.63 nM

Q: With CSc1c(-c2nnc(C3(C(F)(F)F)CC3)o2)nn(-c2ccccc2Cl)c1-c1ccc(Cl)cc1 [Example 6, 2-(1-(2-chlorophenyl)-5-(4-chlorophenyl)-4-(methylthio)-1H-pyrazol-3-yl)-5-(1-(trifluoromethyl)cyclopropyl)-1,3,4-oxadiazole] as the compound, how does the IC50 read?
A: 8.3 nM

Q: How did the IC50 turn out when CS(=O)(=O)c1c(-c2nnc(C3(C(F)(F)F)CCC3)s2)nn(-c2ccc(Cl)cc2Cl)c1-c1ccc(Br)cc1 [Example 110, 2-(5-(4-bromophenyl)-1-(2,4-dichlorophenyl)-4-(methylsulfonyl)-1H-pyrazol-3-yl)-5-(1-(trifluoromethyl)cyclobutyl)-1,3,4-thiadiazole] was run?
A: 3.64 nM

Q: CSc1c(-c2nnc(C(C)(C)C)o2)nn(-c2ccc(Cl)cc2Cl)c1-c1ccc(Br)cc1 [Example 9, 2-(5-(4-bromophenyl)-1-(2,4-dichlorophenyl)-4-(methylthio)-1H-pyrazol-3-yl)-5-tert-butyl-1,3,4-oxadiazole] was tested. Which IC50 did it give?
A: 5.5 nM

Q: Which IC50 does the source give for C[S+]([O-])c1c(-c2nnc(C3(C(F)(F)F)CCC3)s2)nn(-c2ccc(Cl)cc2Cl)c1-c1ccc(Cl)cc1 (stereo not shown) [Example 62, 2-(5-(4-chlorophenyl)-1-(2,4-dichlorophenyl)-4-(methylsulfinyl)-1H-pyrazol-3-yl)-5-(1-(trifluoromethyl)cyclobutyl)-1,3,4-thiadiazole] here?
A: 4.12 nM

Q: For CS(=O)(=O)c1c(-c2nnc(C3(C(F)(F)F)CCC3)o2)nn(-c2ccccc2Cl)c1-c1ccc(Br)cc1 [Example 94, 2-(5-(4-bromophenyl)-1-(2-chlorophenyl)-4-(methylsulfonyl)-1H-pyrazol-3-yl)-5-(1-(trifluoromethyl)cyclobutyl)-1,3,4-oxadiazole], which IC50 is on record?
A: 5.21 nM

Q: For CSc1c(-c2nnc(C(C)(C)C)s2)nn(-c2ccccc2Cl)c1-c1ccc(Br)cc1 [Example 33, 2-(5-(4-bromophenyl)-1-(2-chlorophenyl)-4-(methylthio)-1H-pyrazol-3-yl)-5-tert-butyl-1,3,4-thiadiazole], which IC50 is on record?
A: 5.7 nM

Q: With C[S+]([O-])c1c(-c2nnc(C(C)(C)C)o2)nn(-c2ccccc2Cl)c1-c1ccc(Br)cc1 (stereo not shown) [Example 53, 2-(5-(4-bromophenyl)-1-(2-chlorophenyl)-4-(methylsulfinyl)-1H-pyrazol-3-yl)-5-tert-butyl-1,3,4-oxadiazole] as the compound, how does the IC50 read?
A: 15.6 nM

Q: With CSc1c(-c2nnc(C(C)(C)C)o2)nn(-c2ccc(Cl)cc2Cl)c1-c1ccc(Cl)cc1 [Example 1, 2-tert-butyl-5-(5-(4-chlorophenyl)-1-(2,4-dichlorophenyl)-4-(methylthio)-1H-pyrazol-3-yl)-1,3,4-oxadiazole] as the compound, how does the IC50 read?
A: 6.26 nM

Q: With CSc1c(-c2nnc(C(C)(C)C)s2)nn(-c2ccc(Cl)cc2Cl)c1-c1ccc(Cl)cc1 [Example 21, 2-tert-butyl-5-(5-(4-chlorophenyl)-1-(2,4-dichlorophenyl)-4-(methylthio)-1H-pyrazol-3-yl)-1,3,4-thiadiazole] as the compound, how does the IC50 read?
A: 5.19 nM

Q: C[S+]([O-])c1c(-c2nnc(C3(C(F)(F)F)CCC3)s2)nn(-c2ccccc2Cl)c1-c1ccc(Br)cc1 (stereo not shown) [Example 74, 2-(5-(4-bromophenyl)-1-(2-chlorophenyl)-4-(methylsulfinyl)-1H-pyrazol-3-yl)-5-(1-(trifluoromethyl)cyclobutyl)-1,3,4-thiadiazole] was tested. Which IC50 did it give?
A: 2.32 nM

Q: With CSc1c(-c2nnc(C3(c4ccc(Cl)cc4)CC3)o2)nn(-c2ccccc2Cl)c1-c1ccc(Cl)cc1 [Example 8, 2-(1-(2-chlorophenyl)-5-(4-chlorophenyl)-4-(methylthio)-1H-pyrazol-3-yl)-5-(1-(4-chlorophenyl)cyclopropyl)-1,3,4-oxadiazole] as the compound, how does the IC50 read?
A: 4.61 nM

Q: How did the IC50 turn out when CC(C)(C)c1nnc(-c2nn(-c3ccccc3Cl)c(-c3ccc(Cl)cc3)c2S(C)(=O)=O)s1 [Example 104, 2-tert-butyl-5-(1-(2-chlorophenyl)-5-(4-chlorophenyl)-4-(methylsulfonyl)-1H-pyrazol-3-yl)-1,3,4-thiadiazole] was run?
A: 7.18 nM

Q: With C[S+]([O-])c1c(-c2nnc(C3(C(F)(F)F)CC3)s2)nn(-c2ccc(Cl)cc2Cl)c1-c1ccc(Cl)cc1 (stereo not shown) [Example 61, 2-(5-(4-chlorophenyl)-1-(2,4-dichlorophenyl)-4-(methylsulfinyl)-1H-pyrazol-3-yl)-5-(1-(trifluoromethyl)cyclopropyl)-1,3,4-thiadiazole] as the compound, how does the IC50 read?
A: 11.3 nM

Q: How did the IC50 turn out when C[S+]([O-])c1c(-c2nnc(C(C)(C)C)o2)nn(-c2ccc(Cl)cc2Cl)c1-c1ccc(Cl)cc1 (stereo not shown) [Example 41, 2-tert-butyl-5-(5-(4-chlorophenyl)-1-(2,4-dichlorophenyl)-4-(methylsulfinyl)-1H-pyrazol-3-yl)-1,3,4-oxadiazole] was run?
A: 30.4 nM

Q: How did the IC50 turn out when CSc1c(-c2nnc(C3(C(F)(F)F)CCC3)o2)nn(-c2ccc(Cl)cc2Cl)c1-c1ccc(Cl)cc1 [Example 3, 2-(5-(4-chlorophenyl)-1-(2,4-dichlorophenyl)-4-(methylthio)-1H-pyrazol-3-yl)-5-(1-(trifluoromethyl)cyclobutyl)-1,3,4-oxadiazole] was run?
A: 9.71 nM

Q: With CSc1c(-c2nnc(C3(C(F)(F)F)CC3)o2)nn(-c2ccc(Cl)cc2Cl)c1-c1ccc(Br)cc1 [Example 10, 2-(5-(4-bromophenyl)-1-(2,4-dichlorophenyl)-4-(methylthio)-1H-pyrazol-3-yl)-5-(1-(trifluoromethyl)cyclopropyl)-1,3,4-oxadiazole] as the compound, how does the IC50 read?
A: 7.95 nM

Q: Which IC50 does the source give for CSc1c(-c2nnc(C3(C(F)(F)F)CCC3)o2)nn(-c2ccc(Cl)cc2Cl)c1-c1ccc(Br)cc1 [Example 11, 2-(5-(4-bromophenyl)-1-(2,4-dichlorophenyl)-4-(methylthio)-1H-pyrazol-3-yl)-5-(1-(trifluoromethyl)cyclobutyl)-1,3,4-oxadiazole] here?
A: 8.44 nM

Q: With CS(=O)(=O)c1c(-c2nnc(C3(C(F)(F)F)CCC3)s2)nn(-c2ccccc2Cl)c1-c1ccc(Br)cc1 [Example 114, 2-(5-(4-bromophenyl)-1-(2-chlorophenyl)-4-(methylsulfonyl)-1H-pyrazol-3-yl)-5-(1-(trifluoromethyl)cyclobutyl)-1,3,4-thiadiazole] as the compound, how does the IC50 read?
A: 1.08 nM

Q: CSc1c(-c2nnc(C3(c4ccc(Cl)cc4)CC3)o2)nn(-c2ccc(Cl)cc2Cl)c1-c1ccc(Br)cc1 [Example 12, 2-(5-(4-bromophenyl)-1-(2,4-dichlorophenyl)-4-(methylthio)-1H-pyrazol-3-yl)-5-(1-(4-chlorophenyl)cyclopropyl)-1,3,4-oxadiazole] was tested. Which IC50 did it give?
A: 9.23 nM

Q: With CS(=O)(=O)c1c(-c2nnc(C3(c4ccc(Cl)cc4)CC3)o2)nn(-c2ccc(Cl)cc2Cl)c1-c1ccc(Cl)cc1 [Example 83, 2-(5-(4-chlorophenyl)-1-(2,4-dichlorophenyl)-4-(methylsulfonyl)-1H-pyrazol-3-yl)-5-(1-(4-chlorophenyl)cyclopropyl)-1,3,4-oxadiazole] as the compound, how does the IC50 read?
A: 22 nM

Q: With CSc1c(-c2nnc(C3(C(F)(F)F)CC3)s2)nn(-c2ccc(Cl)cc2Cl)c1-c1ccc(Br)cc1 [Example 30, 2-(5-(4-bromophenyl)-1-(2,4-dichlorophenyl)-4-(methylthio)-1H-pyrazol-3-yl)-5-(1-(trifluoromethyl)cyclopropyl)-1,3,4-thiadiazole] as the compound, how does the IC50 read?
A: 14.8 nM

Q: CC(C)(C)c1nnc(-c2nn(-c3ccccc3Cl)c(-c3ccc(Br)cc3)c2S(C)(=O)=O)o1 [Example 92, 2-(5-(4-bromophenyl)-1-(2-chlorophenyl)-4-(methylsulfonyl)-1H-pyrazol-3-yl)-5-tert-butyl-1,3,4-oxadiazole] was tested. Which IC50 did it give?
A: 8.15 nM

Q: Which IC50 does the source give for CS(=O)(=O)c1c(-c2nnc(C3(C(F)(F)F)CC3)s2)nn(-c2ccccc2Cl)c1-c1ccc(Br)cc1 [Example 113, 2-(5-(4-bromophenyl)-1-(2-chlorophenyl)-4-(methylsulfonyl)-1H-pyrazol-3-yl)-5-(1-(trifluoromethyl)cyclopropyl)-1,3,4-thiadiazole] here?
A: 2.51 nM

Q: Which IC50 does the source give for CSc1c(-c2nnc(C3(C(F)(F)F)CC3)s2)nn(-c2ccc(Cl)cc2Cl)c1-c1ccc(Cl)cc1 [Example 22, 2-(5-(4-chlorophenyl)-1-(2,4-dichlorophenyl)-4-(methylthio)-1H-pyrazol-3-yl)-5-(1-(trifluoromethyl)cyclopropyl)-1,3,4-thiadiazole] here?
A: 10.9 nM
